Read-outs that look alike come from different tables or passages of the source.
Experiments:
[1] = target: IN-LEDGF/p75 (Human immunodeficiency virus type 1 group M subtype B, UniProt P12497); assay: HTRF-based IN-LEDGF/p75 binding assay; set-up: species or system HIV-1
Protocol: HTRF-based IN multimerization and IN-LEDGF/p75 binding assays were carried out as described previously [33].

[2] = in vitro; assay type: cell-based
Protocol: The cytotoxcity assays were performed as described previously. The fitted dose-response curves were generated to calculate EC50 or CC50 using Origin software (OriginLab, Inc.).

[3] = test system: HIV-1MJ4; assay: Antiviral assay against HIV-1 clade C (pMJ4); assay type: cell-based; details: Human immunodeficiency virus 1, IN residue Ala125, read-out: IC50 for inhibition of HIV-1MJ4 replication
[4] = test system: VSV-G pseudotyped HIV-1-Luc in wild type HEK293T cells; assay: microbe, parasite or virus in culture; assay type: cell-based; details: Human immunodeficiency virus 1, HEK-293T
[5] = test system: VSV-G pseudotyped HIV-1-Luc in PSIP1 KO HEK293T cells; assay: microbe, parasite or virus in culture; assay type: cell-based; details: for EC50: Human immunodeficiency virus 1, HEK-293T
[6] = test system: HIV-1 virions; assay type: cell-based; details: virions produced in presence of 1 µM KF116
[7] = test system: LEDGF/p75-dependent HIV-1 integration; assay: HIV-1 integration site distribution (ligation-mediated PCR, 454-pyrosequencing); assay type: cell-based
[8] = test system: A128T IN HIV-1NL4-3; assay: A128T HIV-1 infectivity in TZM-bl cells; assay type: cell-based; details: particles produced in presence of inhibitor
[9] = test system: HIV-1 particles; assay: Virus production (Gag p24 ELISA) and virion protein processing (immunoblot); assay type: cell-based; details: 1 µM KF116
Protocol: HEK293T cells (2×10^6 cells/100 mm culture dish in 10 ml of complete medium) were transfected with HIV-1 provirus (pNL4-3) and cultured for 24 h to ensure expression of the provirus as described above. Next, the cells were treated with the indicated inhibitor or diluent control (DMSO) for 1 h. The culture supernatant was replaced with fresh complete medium containing either the inhibitor or DMSO, and cells were then cultured for another 24 h to allow for the production of HIV-1 particles in the presence of the inhibitor or diluent control. The virus containing cell-free supernatant was collected, filtered through 0.45 µm filter, and the amounts of viral particles produced was measured by HIV-1 Gag p24 ELISA (ZeptoMetrix) following manufacturer's protocol. Equivalent amounts of virions (∼5 µg p24 based on HIV-1 p24 ELISA) were concentrated over a 25% sucrose cushion by ultra-centrifugation at 28,000 rpm for 2 h at 4°C in SW41 rotor (Beckman). Pelleted virions were lysed in 100 µL RIPA buffer containing 50 mM Tris (pH 8.0), 150 mM NaCl, 0.1% SDS, 1% Triton-X, 1% deoxycholic acid, and 2 mM PMSF. Indicated amounts of concentrated virions were resolved by SDS-PAGE (4–12%, Invitrogen) and immunoblotted.
HEK293T cells were transfected with HIV-1 provirus (pNL4-3). […] (A) Virus-containing cell-free supernatant were harvested and cell-free Gag was measured by HIV-1 Gag p24 ELISA. […]

[10] = test system: HIV-1 virions; assay: Virion RNA packaging; assay type: cell-based; details: 1 µM KF116
Protocol: HEK293T cells (2×10^6 cells/100 mm culture dish in 10 ml of complete medium) were transfected with HIV-1 provirus (pNL4-3) and cultured for 24 h to ensure expression of the provirus as described above. Next, the cells were treated with the indicated inhibitor or diluent control (DMSO) for 1 h. The culture supernatant was replaced with fresh complete medium containing either the inhibitor or DMSO, and cells were then cultured for another 24 h to allow for the production of HIV-1 particles in the presence of the inhibitor or diluent control. The virus containing cell-free supernatant was collected, filtered through a 0.45 µm filter, and concentrated over a 25% sucrose cushion by ultra-centrifugation at 28,000 rpm for 2 h at 4°C in SW41 rotor (Beckman). […] RNA was isolated from the pelleted virions and subsequent cDNA preparations were used for gag quantitative PCR as described above. Relative virion RNA packaging was calculated by normalizing virion Gag RNA copy numbers to Gag p24.
In parallel, aliquots of cell-free virus-containing supernatant were used to measure the amount of viral particles produced using HIV-1 Gag p24 ELISA. Virion RNA packaging was calculated by normalizing virion Gag RNA copy numbers to Gag p24. […]

[11] = test system: HIV-1 virions in HEK293T cells; assay: Viral entry assay; assay type: cell-based; details: virions produced with 1 µM KF116
[12] = target: IN in HIV-1 virions (Human immunodeficiency virus type 1 group M subtype B, UniProt P12497); assay: Virion-associated IN cross-linking assay (BS3); assay type: cell-based; details: virions from cells treated with 1 µM KF116
Protocol: (A) DLS analysis of KF116-induced multimerization of recombinant IN. […] The indicated volumes of cross-linked reaction products were resolved by SDS-PAGE and immunoblotted with HIV-1 IN antibody. The bands corresponding to IN “monomer”, “dimer”, and “higher order oligomers” are indicated.
The IN cross-linking assay was performed as described previously. Briefly, concentrated virions equivalent to 50 ng of HIV-1 p24 were cross-linked with 50 µM bis(sulfosuccinimidyl)suberate (BS^3) cross-linking reagent (Thermo Scientific). Subsequent cross-linked reaction products were quenched and resolved by SDS-PAGE (4–12%, Invitrogen) and immunoblotted.

[13] = target: HIV-1 IN (Human immunodeficiency virus type 1 group M subtype B, UniProt P12497); details: IC50 for inhibiting IN-LEDGF/p75 binding divided by EC50 for aberrant IN multimerization; fold
Protocol: HTRF-based IN multimerization and IN-LEDGF/p75 binding assays were carried out as described previously [33]. The HTRF signal was recorded using a Perkin Elmer Multimode EnSpire plate reader.

[14] = Target, 5 µM, *** P<0.001 vs DMSO
[15] = target cells, 10 µM, *** P<0.001 vs DMSO

Cc1nc(-c2nc3ccc(Cl)cc3[nH]2)c(C)c(-c2ccccc2)c1C(OC(C)(C)C)C(=O)O (stereo not shown) [KF116]
IC50 [1]: 5.03 ± 0.36 µM
CC50 [2]: > 100 µM
IC50 [3]: 0.127 ± 0.01 µM
EC50 ([4]; read-out: EC50, WT producer cells): ~0.069 µM
EC50 ([4]; read-out: EC50, WT target cells): > 50 µM
effect of complete loss of LEDGF/p75 protein in virus-producer cells on IC50 values [5]: did not alter
EC50 ([5]; read-out: EC50, KO producer cells): ~0.075 µM
EC50 ([5]; read-out: EC50, KO target cells): ~1.4 µM
eccentric cores among mature virions [6]: ~95%
% in RefSeq (HIV-1 integration frequency) ([7]; Producer, 100 nM): 82.67%
% in known genes (HIV-1 integration frequency) ([7]; Producer, 100 nM): 83.79%
% in RefSeq (HIV-1 integration frequency) [7, 14]: 81.17%
% in known genes (HIV-1 integration frequency) [7, 14]: 82.38%
% in RefSeq (HIV-1 integration frequency) [7, 15]: 83.17%
% in known genes (HIV-1 integration frequency) [7, 15]: 84.31%
A128T IN HIV-1NL4-3 replication in infected cells [8]: effectively impaired
effect on HIV-1 Gag/Gag-Pol protein processing [9]: did not affect
effect on virus particle production [9]: did not affect
effect on viral genomic RNA packaging [10]: did not affect
effect on viral entry (incoming genomic RNA in target cells) [11]: does not significantly compromise viral entry
IN multimerization in virions after BS3 cross-linking [12]: levels of IN dimers increased and new slower migrating bands were observed
Selectivity ratio, IC50 IN-LEDGF/EC50 aberrant IN multimerization [13]: 58.5

Reference: publication PMC4038613, “A New Class of Multimerization Selective Inhibitors of HIV-1 Integrase” (PLoS Pathogens, 2014)
